The values that follow come from patent US8193362B2 (Syngenta Crop Protection LLC, priority 2008, dated 2012).

Where a name gives a salt, the structure may show the parent alone.

Common to all, as to type: in vivo
Assay [1] relates to Heliothis virescens (Tobacco Budworm). The assay can be described thus: Heliothis virescens egg test on artificial diet in 24-well microtiter plate. As to conditions: 96 h, 200 ppm (concentration in well 18 ppm), eggs 0-24 h old, 4 days, egg mortality, larval mortality, growth regulation. The protocol:
(§1) Heliothis virescens (Tobacco Budworm):
Eggs (0-24 h old) were placed in 24-well microtiter plate on artificial diet and treated with test solutions at an application rate of 200 ppm (concentration in well 18 ppm) by pipetting. After an incubation period of 4 days, samples were checked for egg mortality, larval mortality and growth regulation.

Assay [2] concerns Spodoptera littoralis (Egyptian Cotton Leafworm). The assay is described as follows: Spodoptera littoralis cotton leaf disc spray test. As to conditions: foliar, 72 h, 200 ppm spray on cotton leaf discs, L1 larvae, mortality, feeding behavior, growth regulation 3 DAT. An excerpt: Spodoptera littoralis (Egyptian Cotton Leafworm)
Cotton leaf discs were placed on agar in a 24-well microtiter plate and sprayed with test solutions at an application rate of 200 ppm. After drying, the leaf discs were infested with 5 L1 larvae. The samples were checked for mortality, feeding behavior, and growth regulation 3 days after treatment (DAT).

For assay [3], the system named is Plutella xylostella (Diamond Back Moth). The assay can be described thus: Plutella xylostella L2 larvae test on artificial diet in 24-well microtiter plate. As to conditions: 144 h, 200 ppm (concentration in well 18 ppm), 6 days, larval mortality, growth regulation. The protocol:
Plutella xylostella (Diamond Back Moth):
A 24-well microtiter plate (MTP) with artificial diet was treated with test solutions at an application rate of 200 ppm (concentration in well 18 ppm) by pipetting. After drying, the MTP's were infested with L2 larvae (7-12 per well). After an incubation period of 6 days, samples were checked for larval mortality and growth regulation.

The subject of assay [4] is Heliothis virescens (Tobacco Budworm). The assay is described as follows: Comparative Heliothis virescens egg test in petri dishes on artificial diet. Conditions: 144 h, 6 days incubation, read-out: percentage of dead larvae; for pest or weed control at 0.8 ppm: concentration 0.8 ppm; for pest or weed control at 1.5 ppm: concentration 1.5 ppm; for pest or weed control at 3 ppm: concentration 3 ppm; for pest or weed control at 6 ppm: concentration 6 ppm. The protocol: This Example illustrates the pesticidal/insecticidal properties of compounds of formula (I) compared to Comparative Compound A and Comparative Compound B. Comparative Compound A and Comparative Compound B were disclosed in WO 2006/003494.
as §1
Fresh eggs (0-24 h old) on filterpaper were placed in petri dishes on top of a layer of artificial diet and treated with diluted test solutions by pipetting. After an incubation period of 6 days, samples were checked for larval mortality and growth regulation. The percentage of dead larvae was assessed.

The test system of assay [5] is Diabrotica balteata (Corn Root Worm). The assay can be described thus: Diabrotica balteata L2 larvae test on artificial diet in 24-well microtiter plate. Conditions: 120 h, 200 ppm (concentration in well 18 ppm), 5 days, larval mortality, growth regulation. The protocol: Diabrotica balteata (Corn Root Worm):
A 24-well microtiter plate (MTP) with artificial diet was treated with test solutions at an application rate of 200 ppm (concentration in well 18 ppm) by pipetting. After drying, the MTP's were infested with larvae (L2) (6-10 per well). After an incubation period of 5 days, samples were checked for larval mortality, and growth regulation.

Take `O=C(Nc1cc(Cl)c(C(F)(F)F)nc1C1CCN(C/C=C/c2ccc(Cl)cc2)CC1)c1ccnc(Cl)c1` [Compound H1, 2-chloro-N-{5-chloro-1′-[(E)-3-(4-chloro-phenyl)-allyl]-6-trifluoromethyl-1′,2′,3′,4′,5′,6′-hexahydro-[2,4′]bipyridinyl-3-yl}-isonicotinamide]: the pest or weed control at 200 ppm in assay [1] is at least 80%. The pest or weed control at 200 ppm in assay [2] was at least 80%. In addition, the pest or weed control at 200 ppm in assay [3] was at least 80%. Also, in assay [4], the pest or weed control at 0.8 ppm was determined as 40%, the pest or weed control at 1.5 ppm came out at 78%, the pest or weed control at 3 ppm is 100% and the pest or weed control at 6 ppm came to 100%.

On to `O=C(Nc1ccc(C(F)F)nc1C1CCN(C/C=C/c2ccc(Cl)cc2)CC1)c1ccnc(Cl)c1` [Compound O1, 2-chloro-N-{1′-[(E)-3-(4-chloro-phenyl)-allyl]-6-difluoromethyl-1′,2′,3′,4′,5′,6′-hexahydro-[2,4]bipyridinyl-3-yl}-isonicotinamide], for which the pest or weed control at 200 ppm in assay [1], in assay [2] and in assay [3] was at least 80% in each case.

Take `O=C(Nc1ccc(C(F)(F)F)nc1C1CCN(C/C=C/c2ccc(Cl)cc2)CC1)c1ccnc(Cl)c1` [Compound Q1, 2-chloro-N-{1′-[(E)-3-(4-chloro-phenyl)-allyl]-6-trifluoromethyl-1′,2′,3′,4′,5′,6′-hexahydro-[2,4′]bipyridinyl-3-yl}-isonicotinamide 2-ethyl-hexanoic acid salt]: the pest or weed control at 200 ppm in assay [5], in assay [1] and in assay [3] was at least 80% in each case.

For the molecule `O=C(Nc1cc(C(F)(F)F)c(F)nc1C1CCN(C/C=C/c2ccc(Cl)cc2)CC1)c1ccnc(Cl)c1` [Compound M1, 2-chloro-N-{1′-[(E)-3-(4-chloro-phenyl)-allyl]-6-fluoro-5-trifluoromethyl-1′,2′,3′,4′,5′,6′-hexahydro-[2,4′]bipyridinyl-3-yl}-isonicotinamide], the pest or weed control at 200 ppm in assay [5], in assay [1], in assay [2] and in assay [3] was at least 80% each time.

Turning to `O=C(Nc1cc(Cl)cnc1C1CCN(C/C=C/c2ccc(Cl)cc2)CC1)c1ccnc(Cl)c1` [Comparative Compound B, reference compound], in assay [4], the pest or weed control at 0.8 ppm stood at 0%, the pest or weed control at 1.5 ppm was found to be 50%, the pest or weed control at 3 ppm is 93% and the pest or weed control at 6 ppm stood at 100%.

For `O=C(Nc1cc(Cl)c(Cl)nc1C1CC[N+]([O-])(C/C=C/c2ccc(Cl)cc2)CC1)c1ccnc(Cl)c1` (centres unmarked) [Compound R2], the pest or weed control at 200 ppm in assay [5], in assay [1], in assay [2] and in assay [3] was at least 80% in each case.

Consider `O=C(Nc1cc(C(F)(F)F)c(Cl)nc1C1CC[N+]([O-])(C/C=C/c2ccc(Br)cc2)CC1)c1ccnc(Cl)c1` (centres unmarked) [Compound R4], for which the pest or weed control at 200 ppm in assay [1], in assay [2] and in assay [3] was at least 80% in each case.

In the case of `O=C(Nc1ccc(OC(F)F)nc1C1CCN(C/C=C/c2ccc(Cl)cc2)CC1)c1ccnc(Cl)c1` [Compound P1, 2-chloro-N-{1′-[(E)-3-(4-chloro-phenyl)-allyl]-6-difluoromethoxy-1′,2′,3′,4′,5′,6′-hexahydro-[2,4′]bipyridinyl-3-yl}-isonicotinamide], the pest or weed control at 200 ppm in assay [5], in assay [1], in assay [2] and in assay [3] was at least 80% in each case.

On to `O=C(Nc1ccc(C(F)(F)F)nc1C1CC[N+]([O-])(C/C=C/c2ccc(Cl)cc2)CC1)c1ccnc(Cl)c1` (centres unmarked) [Compound R1], for which the pest or weed control at 200 ppm in assay [5] (in Zea mays), in assay [1], in assay [2] (in Gossypium hirsutum) and in assay [3] was at least 80% each time.

As to `O=C(Nc1ccc(C(F)(F)F)nc1C1CC[N+]([O-])(C/C=C/c2ccc(C(F)(F)F)cc2)CC1)c1ccnc(Cl)c1` (centres unmarked) [Compound R3], the pest or weed control at 200 ppm in assay [5], in assay [1], in assay [2] and in assay [3] was at least 80% each time.

As for `O=C(Nc1cc(F)c(F)nc1C1CCN(C/C=C/c2ccc(Cl)cc2)CC1)c1ccnc(Cl)c1` [Compound N1, 2-chloro-N-{1′-[(E)-3-(4-chloro-phenyl)-allyl]-5,6-difluoro-1′,2′,3′,4′,5′,6′-hexahydro-[2,4′]bipyridinyl-3-yl}-isonicotinamide], the pest or weed control at 200 ppm in assay [5], in assay [1], in assay [2] and in assay [3] was at least 80% throughout.

In turn, `O=C(Nc1ccc(C(F)(F)F)nc1C1CCN(C/C=C/c2ccc(Cl)cc2)CC1)c1ccnc(Cl)c1` [Compound A14, 2-chloro-N-{1′-[(E)-3-(4-chloro-phenyl)-allyl]-6-trifluoromethyl-1′,2′,3′,4′,5′,6′-hexahydro-[2,4′]bipyridinyl-3-yl}-isonicotinamide] displayed a pest or weed control at 200 ppm in assay [2] of at least 80%. Further, in assay [4], the pest or weed control at 0.8 ppm worked out at 100%, the pest or weed control at 1.5 ppm was 100%, the pest or weed control at 3 ppm stood at 100% and the pest or weed control at 6 ppm was determined as 100%.

For the molecule `O=C(Nc1cc(Cl)c(Cl)nc1C1CCN(C/C=C/c2ccc(Cl)cc2)CC1)c1ccnc(Cl)c1` [Compound Q20], the pest or weed control at 200 ppm in assay [1] and in assay [3] was at least 80% in each case.

In turn, `O=C(Nc1c(C2CCN(C/C=C/c3ccc(Cl)cc3)CC2)nc(Cl)c(Cl)c1Cl)c1ccnc(Cl)c1` [Compound J1, 2-chloro-N-{4,5,6-trichloro-1′-[(E)-3-(4-chlorophenyl)-allyl]-1′,2′,3′,4′,5′,6′-hexahydro-[2,4′]bipyridinyl-3-yl}-isonicotinamide] came in with a pest or weed control at 200 ppm in assay [1] of at least 80%. Also, the pest or weed control at 200 ppm in assay [2] was at least 80%. Also, the pest or weed control at 200 ppm in assay [3] was at least 80%. In addition, in assay [4], the pest or weed control at 0.8 ppm was 40%, the pest or weed control at 1.5 ppm worked out at 90%, the pest or weed control at 3 ppm was 93% and the pest or weed control at 6 ppm was 100%.

`O=C(Nc1cc(Cl)c(Cl)nc1C1CCN(C/C=C/c2ccc(Cl)cc2)CC1)c1ccnc(Cl)c1` [Compound C1, 2-chloro-N-{5,6-dichloro-1′-[(E)-3-(4-chloro-phenyl)-allyl]-1′,2′,3′,4′,5′,6′-hexahydro-[2,4′]bipyridinyl-3-yl}-isonicotinamide] gave a pest or weed control at 200 ppm in assay [5] of at least 80%. Also, the pest or weed control at 200 ppm in assay [2] was at least 80%. Also, in assay [4], the pest or weed control at 0.8 ppm came to 100%, the pest or weed control at 1.5 ppm amounted to 100%, the pest or weed control at 3 ppm worked out at 100% and the pest or weed control at 6 ppm was 100%.

On to `O=C(Nc1c(F)cc(C(F)(F)F)nc1C1CCN(C/C=C/c2ccc(Cl)cc2)CC1)c1ccnc(Cl)c1` [Compound K1, 2-chloro-N-{1′-[(E)-3-(4-chloro-phenyl)-allyl]-4-fluoro-6-trifluoromethyl-1′,2′,3′,4′,5′,6′-hexahydro-[2,4′]bipyridinyl-3-yl}-isonicotinamide], for which the pest or weed control at 200 ppm in assay [1], in assay [2] and in assay [3] was at least 80% in each case.

As to `O=C(Nc1ccc(Cl)nc1C1CCN(C/C=C/c2ccc(Cl)cc2)CC1)c1ccnc(Cl)c1` [Comparative Compound A, reference compound], in assay [4], the pest or weed control at 0.8 ppm amounted to 30%, the pest or weed control at 1.5 ppm turned out to be 50%, the pest or weed control at 3 ppm came to 70% and the pest or weed control at 6 ppm came to 93%.
